From patent US8952055B2 (priority 2008, dated 2015)
pEC50: −log10 of the molar value. Like-named read-outs stand apart in the source and are kept apart here.

Experiments:
[1] = tested on: influenza viruses (A/PR8/34/H1N1); conditions: for pEC50: read-out: EC50 Antiviral effect (50% effective concentration), viral infectivity-inhibiting effect
[2] = tested on: influenza viruses (A/PR8/34/H1N1); assay: Hemagglutination assay with chicken erythrocytes; type: cell-based, influenza virus; conditions: final concentrations 0 to 16 μmol/l, FIG. 3
[3] = tested on: influenza viruses (A/PR8/34/H1N1); conditions: for pEC50: read-out: EC50 Antiviral effect (50% effective concentration), viral infection-preventing effect
[4] = tested on: canine kidney cultured cells (MDCK); conditions: read-out: CC50 Cytotoxicity (50% cytotoxic concentration); Table 3
[5] = tested on: influenza viruses (A/PR8/34/H1N1); assay: microbe, parasite or virus in culture; conditions: H1N1|PR8, MDCK, read-out: EC50 Antiviral effect (50% effective concentration), viral infectivity-inhibiting effect
[6] = tested on: influenza viruses (A/PR8/34/H1N1); assay: microbe, parasite or virus in culture; conditions: H1N1|PR8, MDCK, read-out: EC50 Antiviral effect (50% effective concentration), viral infection-preventing effect

Structure (SMILES) | SI Selectivity (Selective Index = CC50/EC50) ([1]; Table 4, viral infectivity-inhibiting effect) | pEC50 ([1]; Table 4, sample incubated with A/PR8/34/H1N1 for 30 minutes before application to MDCK cells) | pEC50 ([1]; Table 6, Example 3, comparison with zanamivir and oseltamivir phosphate) | suppression of agglutination of the erythrocytes [2] | SI Selectivity (Selective Index = CC50/EC50) ([3]; Table 3, viral infection-preventing effect) | pEC50 [3] | pEC50 ([3]; Table 5, Example 3, comparison with zanamivir and oseltamivir phosphate) | CC50 [4] | pEC50 [5] | pEC50 [6]
O=C(O[C@@H]1Cc2c(O)cc(O)cc2O[C@@H]1c1cc(O)c(O)c(O)c1)c1cc(O)c(O)c(O)c1 [EGCG, epigallocatechin gallate] | 703 | 6.41 | 6.41 | not observed | 2.91 | 4.02 | 4.02 | 276 µM |  | 
CCOC(=O)C1=C[C@@H](OC(CC)CC)[C@H](NC(C)=O)[C@@H](N)C1 [oseltamivir phosphate] |  |  |  |  |  |  |  |  | 4.25 | 4.23
CC(=O)N[C@H]1[C@H]([C@H](O)[C@H](O)CO)OC(C(=O)O)=C[C@@H]1N=C(N)N [zanamivir] |  |  |  |  |  |  |  |  | 5.20 | 4.42
